In US6465395B2, “Substituted methylene pyrazolinones and the herbicidal use thereof” (BASF Aktiengesellschaft, priority 2000, dated 2002):

Assays:
Type in all cases: in vivo
[1] = tested on: GOSHI, Cotton, Gossypium hirsutum, L.; assay: Postemergence herbicidal evaluation; details: crop (cotton)
Description: (§1) The postemergence herbicidal activity of the compounds of the present invention is evaluated by the following tests. Seedling plants are grown in jiffy flats for about two weeks. The test compounds are dispersed in 80/20 (v/v) acetone/water mixtures containing 1.0% SUN-IT®II, a methylated seed oil, in sufficient quantities to provide the equivalent of about 0.006 kg/ha to 0.800 kg/ha of active compound when applied to the plants through a spray nozzle operating at 40 psi for a predetermined time. After spraying, the plants are placed on greenhouse benches and are cared for in accordance with conventional greenhouse procedures. Approximately two to three weeks after treatment, the seedling plants are examined and rated according to the rating system set forth below. Where more than one test is involved for a given compound, the data are averaged.

[2] = tested on: PANDI, Panicum, Fall, Panicum dichotomiflorum, Michx; assay: Postemergence herbicidal evaluation
Description: as §1

[3] = tested on: AMBEL, Ragweed, Ambrosia artemisifolia, L.; assay: Postemergence herbicidal evaluation
Description: as §1

[4] = tested on: CHEAL, Lambsquarters, Chenopodium album, L.; assay: Postemergence herbicidal evaluation
Description: as §1

[5] = tested on: ABUTH, Velvetleaf, Abutilon theophrasti, Medic.; assay: Postemergence herbicidal evaluation
Description: as §1

[6] = tested on: ORYSAT, Rice, Tebonnet, Oryza sativa, (L.) Tebonnet; assay: Postemergence herbicidal evaluation; details: crop (rice)
Description: as §1

[7] = tested on: ECHCG, Barnyardgrass, Echinochloa crus-galli, (L.) Beau; assay: Postemergence herbicidal evaluation
Description: as §1

[8] = tested on: IPOSS, Morningglory spp., Ipomoea spp.; assay: Postemergence herbicidal evaluation
Description: as §1

[9] = tested on: ZEAMX, Corn, Field, Zea mays, L.; assay: Postemergence herbicidal evaluation; details: crop (corn)
Description: as §1

[10] = tested on: SETVI, Foxtail, Green, Setaria viridis, (L.) Beau; assay: Postemergence herbicidal evaluation
Description: as §1

[11] = tested on: PANDI, Panicum, Fall, Panicum dichotomiflorum, Michx; assay: Preemergence herbicidal evaluation
Text: (§2) The preemergence herbicidal activity of the test compounds of the present invention is exemplified by the following tests in which the seeds of a variety of monocotyledonous and dicotyledonous plants are separately mixed with potting soil and planted on top of approximately one inch of soil in separate pint cups. After planting, the cups are sprayed with the selected aqueous acetone solution containing test compound in sufficient quantity to provide the equivalent of about 0.0125 kg/ha to 0.800 kg/ha of test compound per cup. The treated cups are then placed on greenhouse benches, watered and cared for in accordance with conventional greenhouse procedures. Approximately two to four weeks after treatment, the tests are terminated and each cup is examined and rated according to the rating system provided in Example 12. When more than one test is performed for a given compound, the data are averaged.

[12] = tested on: AMBEL, Ragweed, Ambrosia artemisifolia, L.; assay: Preemergence herbicidal evaluation
Text: as §2

[13] = tested on: CHEAL, Lambsquarters, Chenopodium album, L.; assay: Preemergence herbicidal evaluation
Text: as §2

[14] = tested on: ABUTH, Velvetleaf, Abutilon theophrasti, Medic.; assay: Preemergence herbicidal evaluation
Text: as §2

[15] = tested on: ORYSAT, Rice, Tebonnet, Oryza sativa, (L.) Tebonnet; assay: Preemergence herbicidal evaluation; details: crop (rice)
Text: as §2

[16] = tested on: ECHCG, Barnyardgrass, Echinochloa crus-galli, (L.) Beau; assay: Preemergence herbicidal evaluation
Text: as §2

[17] = tested on: IPOSS, Morningglory spp., Ipomoea spp.; assay: Preemergence herbicidal evaluation
Text: as §2

[18] = tested on: ZEAMX, Corn, Field, Zea mays, L.; assay: Preemergence herbicidal evaluation; details: crop (corn)
Text: as §2

[19] = tested on: GOSHI, Cotton, Gossypium hirsutum, L.; assay: Preemergence herbicidal evaluation; details: crop (cotton)
Text: as §2

[20] = tested on: SETVI, Foxtail, Green, Setaria viridis, (L.) Beau; assay: Preemergence herbicidal evaluation
Text: as §2

With CCCS/C(=C1/C=NN(CC)C1=O)c1ccc2c(c1C)/C(=N/OC)CCS2(=O)=O [Example 8b, 1-Ethyl-4-[(Z)-(5-methyl-4-oxothiochroman-6-yl)(propythio)methylene]-2-pyrazolin-5-one 4′-[(E)-O-methyloxime], S,S-dioxide] the “Herbicide rating GOSHI” value ([1]; 0.0500 kg/ha) was 0.0, the “Herbicide rating GOSHI” value ([1]; 0.1000 kg/ha) was 0.0 and the “Herbicide rating GOSHI” value ([1]; 0.2000 kg/ha) was 0.0. The “Herbicide rating GOSHI” value ([1]; 0.4000 kg/ha) was 4.0, the “Herbicide rating GOSHI” value ([1]; 0.8000 kg/ha) was 4.5 and the “Herbicide rating PANDI” value ([2]; 0.0500 kg/ha) was 2.0. For the same compound, the “Herbicide rating PANDI” value ([2]; 0.1000 kg/ha) was 6.0, the “Herbicide rating PANDI” value ([2]; 0.2000 kg/ha) was 7.0 and the “Herbicide rating PANDI” value ([2]; 0.4000 kg/ha) was 7.0. For the same compound, the “Herbicide rating PANDI” value ([2]; 0.8000 kg/ha) was 6.0, the “Herbicide rating AMBEL” value ([3]; 0.0500 kg/ha) was 0.0 and the “Herbicide rating AMBEL” value ([3]; 0.1000 kg/ha) was 5.0. For the same compound, the “Herbicide rating AMBEL” value ([3]; 0.2000 kg/ha) was 7.0, the “Herbicide rating AMBEL” value ([3]; 0.4000 kg/ha) was 7.0 and the “Herbicide rating AMBEL” value ([3]; 0.8000 kg/ha) was 7.0. The “Herbicide rating CHEAL” value ([4]; 0.0500 kg/ha) was 7.0, the “Herbicide rating CHEAL” value ([4]; 0.1000 kg/ha) was 8.0 and the “Herbicide rating CHEAL” value ([4]; 0.2000 kg/ha) was 8.0. The “Herbicide rating CHEAL” value ([4]; 0.4000 kg/ha) was 9.0, the “Herbicide rating CHEAL” value ([4]; 0.8000 kg/ha) was 9.0 and the “Herbicide rating ABUTH” value ([5]; 0.0500 kg/ha) was 1.0. For the same compound, the “Herbicide rating ABUTH” value ([5]; 0.1000 kg/ha) was 0.0, the “Herbicide rating ABUTH” value ([5]; 0.2000 kg/ha) was 5.0 and the “Herbicide rating ABUTH” value ([5]; 0.4000 kg/ha) was 5.0. For the same compound, the “Herbicide rating ABUTH” value ([5]; 0.8000 kg/ha) was 6.0, the “Herbicide rating ORYSAT” value ([6]; 0.0500 kg/ha) was 1.0 and the “Herbicide rating ORYSAT” value ([6]; 0.1000 kg/ha) was 1.7. The “Herbicide rating ORYSAT” value ([6]; 0.2000 kg/ha) was 3.5, the “Herbicide rating ORYSAT” value ([6]; 0.4000 kg/ha) was 1.5 and the “Herbicide rating ORYSAT” value ([6]; 0.8000 kg/ha) was 3.5. For the same compound, the “Herbicide rating ECHCG” value ([7]; 0.0500 kg/ha) was 6.5, the “Herbicide rating ECHCG” value ([7]; 0.1000 kg/ha) was 8.0 and the “Herbicide rating ECHCG” value ([7]; 0.2000 kg/ha) was 8.0. For the same compound, the “Herbicide rating ECHCG” value ([7]; 0.4000 kg/ha) was 9.0, the “Herbicide rating ECHCG” value ([7]; 0.8000 kg/ha) was 9.0 and the “Herbicide rating IPOSS” value ([8]; 0.0500 kg/ha) was 0.0. The “Herbicide rating IPOSS” value ([8]; 0.1000 kg/ha) was 0.0, the “Herbicide rating IPOSS” value ([8]; 0.2000 kg/ha) was 0.0 and the “Herbicide rating IPOSS” value ([8]; 0.4000 kg/ha) was 0.0. The “Herbicide rating IPOSS” value ([8]; 0.8000 kg/ha) was 0.0, the “Herbicide rating ZEAMX” value ([9]; 0.0500 kg/ha) was 0.0 and the “Herbicide rating ZEAMX” value ([9]; 0.1000 kg/ha) was 0.0. For the same compound, the “Herbicide rating ZEAMX” value ([9]; 0.2000 kg/ha) was 0.0, the “Herbicide rating ZEAMX” value ([9]; 0.4000 kg/ha) was 0.0 and the “Herbicide rating ZEAMX” value ([9]; 0.8000 kg/ha) was 0.0. The “Herbicide rating SETVI” value ([10]; 0.0500 kg/ha) was 3.5, the “Herbicide rating SETVI” value ([10]; 0.1000 kg/ha) was 3.5 and the “Herbicide rating SETVI” value ([10]; 0.2000 kg/ha) was 4.0. The “Herbicide rating SETVI” value ([10]; 0.4000 kg/ha) was 9.0, the “Herbicide rating SETVI” value ([10]; 0.8000 kg/ha) was 9.0 and the “Herbicide rating PANDI” value ([11]; 0.2000 kg/ha) was 2.0. The “Herbicide rating PANDI” value ([11]; 0.4000 kg/ha) was 7.0, the “Herbicide rating PANDI” value ([11]; 0.8000 kg/ha) was 7.0 and the “Herbicide rating AMBEL” value ([12]; 0.2000 kg/ha) was 0.0. The “Herbicide rating AMBEL” value ([12]; 0.4000 kg/ha) was 3.0, the “Herbicide rating AMBEL” value ([12]; 0.8000 kg/ha) was 6.0 and the “Herbicide rating CHEAL” value ([13]; 0.2000 kg/ha) was 6.0. For the same compound, the “Herbicide rating CHEAL” value ([13]; 0.4000 kg/ha) was 7.0, the “Herbicide rating CHEAL” value ([13]; 0.8000 kg/ha) was 9.0 and the “Herbicide rating ABUTH” value ([14]; 0.2000 kg/ha) was 0.0. The “Herbicide rating ABUTH” value ([14]; 0.4000 kg/ha) was 0.0, the “Herbicide rating ABUTH” value ([14]; 0.8000 kg/ha) was 9.0 and the “Herbicide rating ORYSAT” value ([15]; 0.2000 kg/ha) was 0.0. For the same compound, the “Herbicide rating ORYSAT” value ([15]; 0.4000 kg/ha) was 0.0, the “Herbicide rating ORYSAT” value ([15]; 0.8000 kg/ha) was 0.0 and the “Herbicide rating ECHCG” value ([16]; 0.2000 kg/ha) was 0.0. For the same compound, the “Herbicide rating ECHCG” value ([16]; 0.4000 kg/ha) was 0.0, the “Herbicide rating ECHCG” value ([16]; 0.8000 kg/ha) was 0.0 and the “Herbicide rating IPOSS” value ([17]; 0.2000 kg/ha) was 0.0. The “Herbicide rating IPOSS” value ([17]; 0.4000 kg/ha) was 0.0, the “Herbicide rating IPOSS” value ([17]; 0.8000 kg/ha) was 0.0 and the “Herbicide rating ZEAMX” value ([18]; 0.2000 kg/ha) was 0.0. The “Herbicide rating ZEAMX” value ([18]; 0.4000 kg/ha) was 0.0, the “Herbicide rating ZEAMX” value ([18]; 0.8000 kg/ha) was 0.0 and the “Herbicide rating GOSHI” value ([19]; 0.2000 kg/ha) was 0.0. For the same compound, the “Herbicide rating GOSHI” value ([19]; 0.4000 kg/ha) was 0.0, the “Herbicide rating GOSHI” value ([19]; 0.8000 kg/ha) was 0.0 and the “Herbicide rating SETVI” value ([20]; 0.2000 kg/ha) was 3.0. The “Herbicide rating SETVI” value ([20]; 0.4000 kg/ha) was 0.0 and the “Herbicide rating SETVI” value ([20]; 0.8000 kg/ha) was 3.0.
